Measurements from patent US4263427A, “Monensin urethane derivatives” (priority 1979, dated 1981).
Values after ≈ are worked out from the molar mass of the structure shown. Where a name gives a salt, the structure may show the parent alone.

Legend:
Plasmodium berghei = experiment: Oral antimalarial activity against Plasmodium berghei in mice; type: in vivo; settings: p.o.
From the text: Compounds of formula I wherein R4 is aryl, haloaryl or nitroaryl and their pharmaceutically acceptable salts are orally active as antimalarial agents.

Eimeria tenella = experiment: Anti-coccidial effect of monensin urethanes added to the feed of infected chickens (Table 7); type: in vivo; settings: infected untreated control 3.0, less than 2.5 significant
Experimental: This test utilizes ten chickens per drug group. Ten chickens are employed as a weight control and ten chickens as an infected control. The drug is given 48 hours in advance of the infection. One gm. of the test drug is mixed in a mechanical mixer with a sufficient amount of chicken feed to result in the desired dosage. The infection consists of approximately 200,000 oocysts given orally by pipette. The tests lasts for eleven days and then the surviving birds are autopsied and examined for gross lesions in the ceca. The test birds are rated according to the number of survivors and the number of cecal lesions. The results are expressed as average degree of infection (A.D.I.). An average degree of infection of less than 2.5 is considered to be significant.

Treponema hyodysenteriae = experiment: Activity against Treponema hyodysenteriae (MIC, blood agar plates); type: cell-based; settings: Brachyspira hyodysenteriae, 48 h, 42° C., anaerobic
From the text: Testing for activity against Treponema hyodysenteriae, a cause of swine dysentery consisted of inoculation of blood agar plates containing a series of two or fourfold dilutions of the monensin urethane derivatives with tenfold dilutions of the T. hyodysenteriae strain.

Bacillus sp. E 27859 = experiment: Minimum Inhibitory Concentration, agarwell diffusion assay (Table 6); type: cell-based; settings: Bacillus, SP.E27859, Bacillus sp. E 27859, read-out: Minimum Inhibitory Concentration
From the text: (§1) (a) Lowest twofold dilution giving zone of inhibition in the agarwell
(§2) (b) NRRL collection number, all the rest ate ATCC numbers.

[1] = system: Streptococcus cellulosac 3313; experiment: as above; type: cell-based; settings: Streptococcus, 3313, read-out: Minimum Inhibitory Concentration, Streptococcus cellulosac 3313
From the text: as §1, §2

MycoBacterium phiel 355 = experiment: as above; type: cell-based; settings: Mycobacterium, 355, read-out: Minimum Inhibitory Concentration, MycoBacterium phiel 355
From the text: as §1, §2

Bacillus megaterium 8CU = experiment: as above; type: cell-based; settings: Priestia megaterium, 8CU, read-out: Minimum Inhibitory Concentration, Bacillus megaterium 8CU
From the text: as §1, §2

[2] = system: Paceilomyces variotl 25820; experiment: as above; type: cell-based; settings: read-out: Minimum Inhibitory Concentration, Paceilomyces variotl 25820
From the text: as §1, §2

Bacillus subtilis 583 = experiment: as above; type: cell-based; settings: Bacillus subtilis, 583, Bacillus subtilis 583 (NRRL), read-out: Minimum Inhibitory Concentration
From the text: as §1, §2

Staph. aureus 6538 = experiment: as above; type: cell-based; settings: Staphylococcus aureus, 6538, read-out: Minimum Inhibitory Concentration, Staph. aureus 6538
From the text: as §1, §2

Bacillus sp. TA 27860 = experiment: as above; type: cell-based; settings: Bacillus, SP.TA27860, Bacillus sp. TA 27860, read-out: Minimum Inhibitory Concentration
From the text: as §1, §2

Sarcina lutca 9341 = experiment: as above; type: cell-based; settings: Sarcina, 9341, read-out: Minimum Inhibitory Concentration, Sarcina lutca 9341
From the text: as §1, §2

[3] = system: Streptococcus faecium 8043; experiment: as above; type: cell-based; settings: Enterococcus faecium, 8043, Streptococcus faecium 8043, read-out: Minimum Inhibitory Concentration
From the text: as §1, §2

rumen fluid = settings: 50 ppm; control 100
[4] = Oral antihypertensive activity: blood pressure and heart rate (Table 9); type: in vivo; settings: oral dose 1 mg/kg
From the text: Compounds of formula I, and their pharmaceutically acceptable salts are orally active as antihypertensive agents.

Row | SMILES | ED50 (Plasmodium berghei) [mg/kg] | MIC (Treponema hyodysenteriae) [µg/mL] | MIC (Bacillus sp. E 27859) [µg/mL] | MIC [1] [µg/mL] | MIC (MycoBacterium phiel 355) [µg/mL] | MIC (Bacillus megaterium 8CU) [µg/mL] | MIC [2] [µg/mL] | MIC (Bacillus subtilis 583) [µg/mL] | MIC (Staph. aureus 6538) [µg/mL] | MIC (Bacillus sp. TA 27860) [µg/mL] | MIC (Sarcina lutca 9341) [µg/mL] | MIC [3] [µg/mL] | Day of Maximum Change, Blood Pressure [4] [days] | Maximum Change (%), Blood Pressure [4] [%] | Mean Blood Pressure at time of maximum effect [4] [mm Hg] | Mean Blood Pressure before treatment [4] [mm Hg] | other results
1 | CCC1(C2OC(C3OC(O)(COC(=O)Nc4ccc(Br)cc4)C(C)CC3C)CC2C)CCC(C2(C)CCC3(CC(O)C(C)C(C(C)C(OC)C(C)C(=O)O)O3)O2)O1 (centres unmarked) [Monensin A, 4-bromophenylurethane, 4-bromophenylaminocarbonyloxy-(0-11)-monensin, sodium salt] | 15 to 20 | 0.4 | 0.05 | 0.8 | 1.6 | 0.1 | 1.6 | 0.4 | 0.8 | 0.2 | 0.2 | 0.1 | 2 | 21 | 178 | 225 | Average Degree of Infected (A.D.I.) (Eimeria tenella; 75 ppm in feed): 0.7; Rate of Gas Production, Percent Production of Control Fermentations (rumen fluid): 103.0%; Total VFA, Percent Production of Control Fermentations (rumen fluid): 89.9%
2 | CCC1(C2OC(C3OC(O)(COC(=O)Nc4ccc(Cl)cc4)C(C)CC3C)CC2C)CCC(C2(C)CCC3(CC(O)C(C)C(C(C)C(OC)C(C)C(=O)O)O3)O2)O1 (centres unmarked) [Monensin A, 4-chlorophenylurethane] | 2.3 | 0.08 (≈ 0.097 µM) | 0.02 (≈ 0.0243 µM) | 0.8 (≈ 0.97 µM) | 0.8 (≈ 0.97 µM) | 0.2 (≈ 0.243 µM) | 3.1 (≈ 3.76 µM) | 0.4 (≈ 0.485 µM) | 0.4 (≈ 0.485 µM) | 0.2 (≈ 0.243 µM) | 0.2 (≈ 0.243 µM) | 0.05 (≈ 0.0606 µM) | 5 | 20 | 179 | 224 | Average Degree of Infected (A.D.I.) (Eimeria tenella; 65 ppm in feed): 0.8; Day of Maximum Change, Heart Rate [4]: 5 days; Maximum Change (%), Heart Rate [4]: 19%
